Reference: patent publication US20210046071A1, “TETRACYCLIC COMPOUNDS AND THEIR SALTS, COMPOSITIONS, AND METHODS FOR THEIR USE” (Senhwa Biosciences, Inc., priority 2019, published 2021)
Read-outs that look alike come from different tables or passages of the source.

Assay: Pharmacokinetic studies in human, Compound I in plasma by LC/MS/MS
Assay type: in vivo
Conditions: human, plasma, iv; for AUC(0-inf): read-out: AUC∞; for half-life: read-out: T1/2 (converted)
Experimental: Pharmacokinetic studies and dose escalation studies were conducted in adult patients with metastatic, recurrent, locally, advanced, or unresectable solid malignancy (patients with histologically and/or cytologically confirmed solid malignancy), who received prior anti-cancer treatment(s) until disease progression, at 10 different dose levels of Compound I. Groups 1-7 were administered intravenously on days 1 and 8 of a 4-week cycle at 50, 100, 150, 200, 250, 325, and 475 mg/m^2 (lyophilized formulation), respectively. Groups 8-10 were administered intravenously on days 1,8, and 15 of a 4-week cycle at 325, 475, and 650 mg/m^2 (lyophilized formulation), respectively. Each patient received each dose over 1 hour by IV infusion on days described above.
They lyophilized formulation was reconstituted with 5% glucose in sterile water, or similar biologically acceptable fluid, for IV infusion.
For patients in Groups 1-7, blood samples were typically collected at Day 1 at pre-infusion (t=−1 h), during infusion at about 30 minutes (t=−0.5 h), immediately post infusion (t=0 h), 30 min post-infusion, 1 h post-infusion, 2 h post-infusion, 4 h post-infusion, and 6 h post-infusion, as well as at about 24 h post-infusion, 48 h post-infusion, and 72 h post-infusion. On Day 8, blood samples were typically collected at pre-infusion (t=−1 h), during infusion at about 30 minutes (t=−0.5 h), immediately post infusion (t=0 h), 30 min post-infusion, 1 h post-infusion, 2 h post-infusion, 4 h post-infusion, and 6 h post-infusion, as well as at about 24 h post-infusion, and 168 h post-infusion (Day 15).
For patients in Groups 8-10, blood samples were typically collected at Day 1 at pre-infusion (t=−1 h), during infusion at about 30 minutes (t=−0.5 h), immediately post infusion (t=0 h), 30 min post-infusion, 1 h post-infusion, 2 h post-infusion, 4 h post-infusion, and 6 h post-infusion, as well as at about 24 h post-infusion, 48 h post-infusion, and 72 h post-infusion. On Day 8, blood samples were typically collected at pre-infusion (t=−1 h). On Day 15, blood samples were typically collected at pre-infusion (t=−1 h), during infusion at about 30 minutes (t=−0.5 h), immediately post infusion (t=0 h), 30 min post-infusion, 1 h post-infusion, 2 h post-infusion, 4 h post-infusion, and 6 h post-infusion, as well as at about 24 h post-infusion, and 168 h post-infusion (Day 22).
Levels of Compound I in patient's plasma were analyzed by liquid chromatography tandem mass spectrometry (LC/MS/MS) assay. Experimental procedures of the validated methods are summarized below. The pharmacokinetic parameters after first dose and second dose for Groups 1-7 and after first dose and third dose for Groups 8-10 are shown in Tables 2A-2J. In Tables 2A-2J: SD=standard deviation; Cmax=maximum observed concentration; D=dose; Tmax=time to maximum observed concentration; T1/2=elimination half-life; Vd=volume of distribution; CL=drug clearance; and AUC∞=area under the concentration-time curve from time zero to infinity (total exposure).
The concentrations of Compound I in human plasma samples collected from subjects of as discussed above. Compound I concentrations in plasma samples were measured based on 9 levels of calibration standards from 5.00 to 5000 ng/mL, and 3 levels of QC at 15.0 ng/mL (low), 2500 ng/mL (mid), and 4000 ng/mL (high).
Two reference standard master stock solutions of Compound I were prepared by dissolving the Compound 1 reference standard with 50:50:0.1 ACN:diH2O:FA (v/v/v) and sonicating for 7 minutes (diH2O=deionized water). The resulting solutions were further diluted with 50:50:0.1 ACN:diH2O:FA (v/v/v) into a series of working stock solutions (WSS) for spiking of Compound I calibration standards and QC samples. The master stock solutions were prepared fresh on the day of assay, or stored at nominal 2° C. to 8° C. for later use. Master stock solutions were used within the stability timeframe. […]

[1] = 150 mg/m2, Group 3, 150 mg/m^2 IV, Day 8, mean, n = 4
[2] = 200 mg/m2, Group 4, 200 mg/m^2 IV, Day 1, mean, n = 4
[3] = 200 mg/m2, Group 4, 200 mg/m^2 IV, Day 8, mean, n = 4
[4] = 250 mg/m2, Group 5, 250 mg/m^2 IV, Day 1, mean, n = 3
[5] = 250 mg/m2, Group 5, 250 mg/m^2 IV, Day 8, mean, n = 3
[6] = 325 mg/m2, Group 6, 325 mg/m^2 IV, Day 1, mean, n = 3
[7] = 325 mg/m2, Group 6, 325 mg/m^2 IV, Day 8, mean, n = 3
[8] = 325 mg/m2, Group 8, 325 mg/m^2 IV, Day 1, mean, n = 3
[9] = 325 mg/m2, Group 8, 325 mg/m^2 IV, Day 1, mean, n = 4
[10] = 325 mg/m2, Group 8, 325 mg/m^2 IV, Day 15, mean, n = 4
[11] = 475 mg/m2, Group 7, 475 mg/m^2 IV, Day 1, mean, n = 3
[12] = 475 mg/m2, Group 7, 475 mg/m^2 IV, Day 8, mean, n = 3
[13] = 475 mg/m2, Group 9, 475 mg/m^2 IV, Day 1, mean, n = 5
[14] = 475 mg/m2, Group 9, 475 mg/m^2 IV, Day 15, mean, n = 4
[15] = 475 mg/m2, Group 9, 475 mg/m^2 IV, Day 15, mean, n = 5
[16] = 650 mg/m2, Group 10, 650 mg/m^2 IV, Day 1, mean, n = 5
[17] = 650 mg/m2, Group 10, 650 mg/m^2 IV, Day 15, mean, n = 5

- Tmax [1]: 0.646 h
- Vd [1]: 939 L
- clearance [1]: 203 mL/min
- AUC(0-inf) [1]: 21800 ng·h/mL
- half-life [1]: 59.1 h
- Cmax [2]: 8950 ng/mL
- Tmax [2]: 0.854 h
- Vd [2]: 1700 L
- clearance [2]: 505 mL/min
- AUC(0-inf) [2]: 15100 ng·h/mL
- half-life [2]: 41.9 h
- Cmax [3]: 1180 ng/mL
- Tmax [3]: 1.3 h
- Vd [3]: 2050 L
- clearance [3]: 470 mL/min
- AUC(0-inf) [3]: 16200 ng·h/mL
- half-life [3]: 53.5 h
- Cmax [4]: 1410 ng/mL
- Tmax [4]: 1.19 h
- Vd [4]: 1450 L
- clearance [4]: 348 mL/min
- AUC(0-inf) [4]: 20900 ng·h/mL
- half-life [4]: 47.9 h
- Cmax [5]: 771 ng/mL
- Tmax [5]: 1.2 h
- Vd [5]: 2160 L
- clearance [5]: 258 mL/min
- AUC(0-inf) [5]: 28100 ng·h/mL
- half-life [5]: 96.9 h
- Cmax [6]: 1070 ng/mL
- Tmax [6]: 1.02 h
- Vd [6]: 1930 L
- clearance [6]: 390 mL/min
- AUC(0-inf) [6]: 23500 ng·h/mL
- half-life [6]: 66.9 h
- Cmax [7]: 1040 ng/mL
- Tmax [7]: 0.672 h
- Vd [7]: 2220 L
- clearance [7]: 307 mL/min
- AUC(0-inf) [7]: 29000 ng·h/mL
- half-life [7]: 86.5 h
- Vd [8]: 2320 L
- clearance [8]: 322 mL/min
- AUC(0-inf) [8]: 29100 ng·h/mL
- half-life [8]: 83.4 h
- Cmax [9]: 1140 ng/mL
- Tmax [9]: 0.767 h
- Cmax [10]: 21100 ng/mL
- Tmax [10]: 0.783 h
- Cmax [11]: 1940 ng/mL
- Tmax [11]: 0.861 h
- Vd [11]: 2590 L
- clearance [11]: 418 mL/min
- AUC(0-inf) [11]: 36200 ng·h/mL
- half-life [11]: 81.8 h
- Cmax [12]: 1710 ng/mL
- Tmax [12]: 0.678 h
- Vd [12]: 2430 L
- clearance [12]: 482 mL/min
- AUC(0-inf) [12]: 35400 ng·h/mL
- half-life [12]: 73.8 h
- Cmax [13]: 1750 ng/mL
- Tmax [13]: 1.18 h
- Vd [13]: 2320 L
- clearance [13]: 460 mL/min
- AUC(0-inf) [13]: 36300 ng·h/mL
- half-life [13]: 61.5 h
- Vd [14]: 2570 L
- clearance [14]: 532 mL/min
- AUC(0-inf) [14]: 32500 ng·h/mL
- half-life [14]: 59 h
- Cmax [15]: 2870 ng/mL
- Tmax [15]: 0.737 h
- Cmax [16]: 3080 ng/mL
- Tmax [16]: 0.81 h
- Vd [16]: 3700 L
- AUC(0-inf) [16]: 57500 ng·h/mL
- half-life [16]: 122 h
- Cmax [17]: 4170 ng/mL
- Tmax [17]: 1.05 h
- Vd [17]: 2620 L
- AUC(0-inf) [17]: 62200 ng·h/mL
- half-life [17]: 93.6 h
SMILES: Cc1cnc(CNC(=O)c2c(=O)c3ccc(N4CCCN(C)CC4)nc3n3c2sc2ccccc23)cn1 [Compound I, 2-(4-Methyl-[1,4]diazepan-1-yl)-5-oxo-5H-7-thia-1,11b-diaza-benzo[c]fluorene-6-carboxylic acid (5-methyl-pyrazin-2-ylmethyl)-amide]
